{"source": "patent US20090011424A1", "about": "“Cancer-suppressing agents” (Tokyo Medical and Dental University, priority 2005, published 2009)", "test_system": "SMS-KAN cell", "test": "messenger RNA expression analysis, AceGene Human oligo chip 30 K, NR1I2-expressing clone B1 vs control clone", "assay_type": "cell-based", "details": "1st: Cy3-B1/Cy5-control", "from_the_text": "The NR1I2 gene has been known as a transcriptional factor. Thus, it is possible to know what type of gene expression is controlled by obtaining messenger RNAs from cells causing NR1I2 protein expression and cells not causing such expression, and comparing the expression levels thereof with each other. As described above, the NR1I2 gene protein may have an effect of inhibiting cancer. […] Therefore, pCMV-Tag3 vector not containing a foreign gene as a control was introduced into SMS-KAN cell, and pCMV-Tag3-VP-NR1I2 containing the NR1I2 gene as a test sample was introduced into SMS-KAN cell. As a result, a control cell clone and a cell clone B1 permanently causing NR1I2 protein expression were obtained. Thereafter, analysis of messenger RNA expression was carried out using these two types of cells and an AceGene Human oligo chip 30 K (DNA Chip Research Inc.), with which the expression levels of 30,000 human genes can be observed (Inoue. J., et al. Am J. Pathol. 165. 71. 2004). A complementary strand DNA (complimentary DNA) was prepared, into which aminoallyl-dUTP (Ambion Inc.) was incorporated using an Oligo (dT) 12-18 primer. Then, the aminoallyl group was labeled with reactive Cy3 (cyanin 3) and Cy5 (cyanin 5) (Amersham Biosciences) via a coupling reaction. Hybridization was performed twice (1st: Cy3-B1/Cy5-control; 2nd: Cy5-B1/Cy3-control). Signals were measured using a GenePix 4000B (Axon Instruments) so as to be analyzed by GenePix Pro 4.1 software (Axon Instruments). Tables 3 and 4 are lists of genes, where in the cases of SMS-KAN cells into which the NR1I2 gene had been introduced in the two experiments, the expression levels were 1.5-fold or greater than the expression level in the case of a control cell clone.", "data": [{"substance": "NR1I2 gene: human-derived gene, nuclear receptor subfamily 1, group I, member 2 (pregnane X receptor, PXR), nucleotide sequence SEQ ID NO: 1", "values": [{"measurement": "ADAMTS2 expression level Ratio 1st", "value": 1.58}, {"measurement": "ADNP expression level Ratio 1st", "value": 1.61}, {"measurement": "AP3S2 expression level Ratio 1st", "value": 2.51}, {"measurement": "APEG1 expression level Ratio 1st", "value": 1.88}, {"measurement": "APOA1 expression level Ratio 1st", "value": 1.98}, {"measurement": "APP expression level Ratio 1st", "value": 2.03}, {"measurement": "ARHC expression level Ratio 1st", "value": 1.50}, {"measurement": "ARL2 expression level Ratio 1st", "value": 1.51}, {"measurement": "ASCL2 expression level Ratio 1st", "value": 2.43}, {"measurement": "ASH1 expression level Ratio 1st", "value": 1.81}, {"measurement": "B4GALT5 expression level Ratio 1st", "value": 1.54}, {"measurement": "BARD1 expression level Ratio 1st", "value": 1.90}, {"measurement": "BCAT2 expression level Ratio 1st", "value": 1.61}, {"measurement": "BLP2 expression level Ratio 1st", "value": 1.51}, {"measurement": "BMP15 expression level Ratio 1st", "value": 1.50}, {"measurement": "C6orf25 expression level Ratio 1st", "value": 1.74}, {"measurement": "CCNA1 expression level Ratio 1st", "value": 1.89}, {"measurement": "CDC7L1 expression level Ratio 1st", "value": 1.84}, {"measurement": "CISH expression level Ratio 1st", "value": 2.14}, {"measurement": "CORO2A expression level Ratio 1st", "value": 1.71}, {"measurement": "Cab45 expression level Ratio 1st", "value": 1.84}, {"measurement": "DKFZp434G05 expression level Ratio 1st", "value": 1.56}, {"measurement": "DKKL1 expression level Ratio 1st", "value": 1.53}, {"measurement": "DNA12 expression level Ratio 1st", "value": 1.52}, {"measurement": "EPHX1 expression level Ratio 1st", "value": 2.22}, {"measurement": "ERCC1 expression level Ratio 1st", "value": 1.82}, {"measurement": "ETR101 expression level Ratio 1st", "value": 1.65}, {"measurement": "EXT1 expression level Ratio 1st", "value": 1.87}, {"measurement": "FLJ10737 expression level Ratio 1st", "value": 1.51}, {"measurement": "FLJ12389 expression level Ratio 1st", "value": 2.16}, {"measurement": "FLJ13197 expression level Ratio 1st", "value": 2.95}, {"measurement": "FLJ13479 expression level Ratio 1st", "value": 1.92}, {"measurement": "FLJ20288 expression level Ratio 1st", "value": 1.81}, {"measurement": "FLJ20555 expression level Ratio 1st", "value": 1.51}, {"measurement": "FLJ23462 expression level Ratio 1st", "value": 1.64}, {"measurement": "FOFR3 expression level Ratio 1st", "value": 1.56}, {"measurement": "GLI2 expression level Ratio 1st", "value": 2.68}, {"measurement": "GNE expression level Ratio 1st", "value": 1.87}, {"measurement": "GSTT2 expression level Ratio 1st", "value": 3.23}, {"measurement": "GUCY1A3 expression level Ratio 1st", "value": 1.60}, {"measurement": "HHEX expression level Ratio 1st", "value": 1.55}, {"measurement": "HNT expression level Ratio 1st", "value": 1.55}, {"measurement": "HPCL2 expression level Ratio 1st", "value": 1.72}, {"measurement": "ICAM5 expression level Ratio 1st", "value": 1.52}, {"measurement": "IFIT4 expression level Ratio 1st", "value": 1.52}, {"measurement": "INSL6 expression level Ratio 1st", "value": 1.66}, {"measurement": "IRC039700 expression level Ratio 1st", "value": 2.12}, {"measurement": "KCNJ15 expression level Ratio 1st", "value": 1.88}, {"measurement": "KIAA0161 expression level Ratio 1st", "value": 1.54}, {"measurement": "KIAA0212 expression level Ratio 1st", "value": 2.01}, {"measurement": "LBP-9 expression level Ratio 1st", "value": 1.93}, {"measurement": "LDB1 expression level Ratio 1st", "value": 1.58}, {"measurement": "LICAM expression level Ratio 1st", "value": 1.87}, {"measurement": "LILRB5 expression level Ratio 1st", "value": 1.73}, {"measurement": "LOC51024 expression level Ratio 1st", "value": 1.67}, {"measurement": "LRP8 expression level Ratio 1st", "value": 1.52}, {"measurement": "LZLP expression level Ratio 1st", "value": 1.58}, {"measurement": "MAFG expression level Ratio 1st", "value": 2.51}, {"measurement": "MGC2306 expression level Ratio 1st", "value": 1.55}, {"measurement": "MGC2941 expression level Ratio 1st", "value": 1.90}, {"measurement": "MPP6 expression level Ratio 1st", "value": 1.67}, {"measurement": "MT-ACT48 expression level Ratio 1st", "value": 1.59}, {"measurement": "OCM expression level Ratio 1st", "value": 1.7}, {"measurement": "OMP expression level Ratio 1st", "value": 1.55}, {"measurement": "OPA3 expression level Ratio 1st", "value": 2.46}, {"measurement": "ORC5L expression level Ratio 1st", "value": 1.67}, {"measurement": "ORM1 expression level Ratio 1st", "value": 1.58}, {"measurement": "PCDHA4 expression level Ratio 1st", "value": 1.94}, {"measurement": "PCDHB10 expression level Ratio 1st", "value": 1.63}, {"measurement": "PDCD8 expression level Ratio 1st", "value": 2.00}, {"measurement": "PFKFB4 expression level Ratio 1st", "value": 4.90}, {"measurement": "PGAM1 expression level Ratio 1st", "value": 2.13}, {"measurement": "PITPN expression level Ratio 1st", "value": 1.73}, {"measurement": "PLA2G2A expression level Ratio 1st", "value": 3.01}, {"measurement": "PLCE1 expression level Ratio 1st", "value": 2.89}, {"measurement": "PLEKHA1 expression level Ratio 1st", "value": 1.54}, {"measurement": "PRO2121 expression level Ratio 1st", "value": 1.89}, {"measurement": "PRO2831 expression level Ratio 1st", "value": 1.51}, {"measurement": "RDH5 expression level Ratio 1st", "value": 1.62}, {"measurement": "RP1 expression level Ratio 1st", "value": 1.54}, {"measurement": "RPL39L expression level Ratio 1st", "value": 2.30}, {"measurement": "RPS16 expression level Ratio 1st", "value": 1.56}, {"measurement": "SC65 expression level Ratio 1st", "value": 1.56}, {"measurement": "SCD expression level Ratio 1st", "value": 1.74}, {"measurement": "SCN2B expression level Ratio 1st", "value": 1.52}, {"measurement": "SLC22A11 expression level Ratio 1st", "value": 1.66}, {"measurement": "SNAP91 expression level Ratio 1st", "value": 3.38}, {"measurement": "STK11 expression level Ratio 1st", "value": 1.62}, {"measurement": "SURF1 expression level Ratio 1st", "value": 1.92}, {"measurement": "TCEA1 expression level Ratio 1st", "value": 1.54}, {"measurement": "TGM2 expression level Ratio 1st", "value": 1.59}, {"measurement": "TIMM10 expression level Ratio 1st", "value": 1.87}, {"measurement": "TLAL1 expression level Ratio 1st", "value": 2.34}, {"measurement": "TMPRSS4 expression level Ratio 1st", "value": 1.55}, {"measurement": "TOP3B expression level Ratio 1st", "value": 1.59}, {"measurement": "TPARL expression level Ratio 1st", "value": 1.56}, {"measurement": "TRPV4 expression level Ratio 1st", "value": 1.77}, {"measurement": "TSPAN-1 expression level Ratio 1st", "value": 1.67}, {"measurement": "UXT expression level Ratio 1st", "value": 2.90}, {"measurement": "WHSC2 expression level Ratio 1st", "value": 1.65}]}]}
